The values that follow come from ChEMBL document CHEMBL5154646, “Structure-guided optimization of 1H-imidazole-2-carboxylic acid derivatives affording potent VIM-Type metallo-β-lactamase inhibitors” (Eur J Med Chem, 2022).

The structures appear in SMILES notation. A value given as a limit tells only on which side of the number the result lay.

Test [1] deals with Pseudomonas aeruginosa. Briefly: Potentiation of meropenem-induced antibacterial activity against Pseudomonas aeruginosa W35 expressing VIM-2 assessed as meropenem MIC at 100 ug/ml incubated for 18 to 20 hrs in presence of meropenem by CLSI based broth microtiter dilution method (reference value: 64 ug/ml). The conditions noted are these: dose 100 µg/ml, time 18-20 hrs. The test is classed as functional.

The test system of test [2] is Escherichia coli. Put plainly: Potentiation of meropenem-induced antibacterial activity against Escherichia coli C1580 expressing VIM-2 assessed as meropenem MIC at 10 ug/ml incubated for 18 to 20 hrs by CLSI based broth microtiter dilution method (reference value: 32 ug/ml). The test is classed as functional. The following applies: dose 10 µg/ml, time 18-20 hrs.
Test [3] is described as follows: Inhibition of bacterial IMP-1 (1 to 246 residues) expressed in Escherichia coli Transetta (DE3) using FC-5 as substrate preincubated with enzyme for 10 mins followed by substrate addition by fluorescence based analysis. More on the design: species or system Bacteria.
Test [4] relates to Pseudomonas aeruginosa. Briefly: Potentiation of meropenem-induced antibacterial activity against Pseudomonas aeruginosa 5621 expressing VIM-2 assessed as meropenem MIC at 100 ug/ml incubated for 18 to 20 hrs in presence of meropenem by CLSI based broth microtiter dilution method (reference value: 64 ug/ml). Format: functional. The conditions noted are these: dose 100 µg/ml, time 18-20 hrs.

For test [5], the system named is Pseudomonas aeruginosa. Briefly: Potentiation of meropenem-induced antibacterial activity against Pseudomonas aeruginosa W35 expressing VIM-2 assessed as fold reduction in meropenem MIC at 100 ug/ml incubated for 18 to 20 hrs by CLSI based broth microtiter dilution method. Format: functional. The conditions noted are these: dose 100 µg/ml; time 18-20 hrs.
The test system of test [6] is Escherichia coli. Put plainly: Potentiation of meropenem-induced antibacterial activity against Escherichia coli C1580 expressing VIM-2 assessed as fold reduction in meropenem MIC at 10 ug/ml incubated for 18 to 20 hrs by CLSI based broth microtiter dilution method. Format: functional. The following applies: dose 10 µg/ml; time 18-20 hrs.
For test [7], the system named is Escherichia coli. Briefly: Potentiation of meropenem-induced antibacterial activity against Escherichia coli C1542 expressing VIM-2 assessed as fold reduction in meropenem MIC at 10 ug/ml incubated for 18 to 20 hrs by CLSI based broth microtiter dilution method. The test is classed as functional. The following applies: dose 10 µg/ml; time 18-20 hrs.
In test [8] the test system is Escherichia coli. Put plainly: Potentiation of meropenem-induced antibacterial activity against Escherichia coli C1541 expressing IMP-1 assessed as meropenem MIC at 10 ug/ml incubated for 18 to 20 hrs by broth microtiter dilution method (reference value: 32 ug/ml). Format: functional. The following applies: dose 10 µg/ml, time 18-20 hrs.
Test [9] is described as follows: Inhibition of bacterial VIM-2 (27 to 266 residues) expressed in Escherichia coli Transetta (DE3) using FC-5 as substrate preincubated with enzyme for 10 mins followed by substrate addition by fluorescence based analysis. More on the design: species or system Bacteria.
A short description of test [10]: Inhibition of bacterial NDM-1 (1 to 270 residues) expressed in Escherichia coli Transetta (DE3) using FC-5 as substrate preincubated with enzyme for 10 mins followed by substrate addition by fluorescence based analysis. Set-up: species or system Bacteria.
A short description of test [11]: Inhibition of bacterial recombinant full length N-terminal-TEV-His6-tagged VIM-5 expressed in Escherichia coli Transetta using FC-5 as substrate preincubated with enzyme for 10 mins followed by substrate addition by fluorescence based analysis. More on the design: species or system Bacteria.
Test [12] has as its system Escherichia coli. Put plainly: Potentiation of meropenem-induced antibacterial activity against Escherichia coli C1542 expressing VIM-2 assessed as meropenem MIC at 10 ug/ml incubated for 18 to 20 hrs by CLSI based broth microtiter dilution method (reference value: 16 ug/ml). The test is classed as functional. The following applies: dose 10 µg/ml, time 18-20 hrs.
Test [13] relates to Escherichia coli. Put plainly: Potentiation of meropenem-induced antibacterial activity against Escherichia coli C1541 expressing IMP-1 assessed as fold reduction in meropenem MIC at 10 ug/ml incubated for 18 to 20 hrs by CLSI based broth microtiter dilution method. The test is classed as functional. The following applies: dose 10 µg/ml; time 18-20 hrs.
In test [14] the test system is Pseudomonas aeruginosa. Put plainly: Potentiation of meropenem-induced antibacterial activity against Pseudomonas aeruginosa 5621 expressing VIM-2 assessed as fold reduction in meropenem MIC at 100 ug/ml incubated for 18 to 20 hrs by CLSI based broth microtiter dilution method. The test is classed as functional. The following applies: dose 100 µg/ml; time 18-20 hrs.

In test [15] the test system is Escherichia coli. Briefly: Potentiation of meropenem-induced antibacterial activity against Escherichia coli C1541 expressing VIM-2 assessed as meropenem MIC at 10 ug/ml incubated for 18 to 20 hrs by CLSI based broth microtiter dilution method (reference value: 16 ug/ml). The test is classed as functional. The following applies: dose 10 µg/ml, time 18-20 hrs.
Test [16] in a line: Inhibition of bacterial recombinant full length C-terminal-TEV-His6-tagged VIM-1 expressed in Escherichia coli Transetta using FC-5 as substrate preincubated with enzyme for 10 mins followed by substrate addition by fluorescence based analysis. Set-up: species or system Bacteria.
Test [17] relates to Escherichia coli. Put plainly: Potentiation of meropenem-induced antibacterial activity against Escherichia coli C1541 expressing VIM-2 assessed as fold reduction in meropenem MIC at 10 ug/ml incubated for 18 to 20 hrs by CLSI based broth microtiter dilution method. The test is classed as functional. The following applies: dose 10 µg/ml; time 18-20 hrs.

Broadly, the MIC is the lowest concentration found to suppress growth. One may read the IC50 as the concentration that inhibits the measured activity by half. Consider `NCc1ccc(Cn2ccnc2C(=O)O)cc1`, for which the MIC in the test with Pseudomonas aeruginosa [1] turned out to be 16 µg/mL; with Escherichia coli [2] it was 16 µg/mL; with Pseudomonas aeruginosa [4], 32 µg/mL; in the test with Escherichia coli [8], 32 µg/mL; with Escherichia coli [12], 16 µg/mL; in the test with Escherichia coli [15], 8 µg/mL. For the same molecule, the IC50 is 75.5 µM in [3]; 3.89 µM in [9]; 165 µM in test [10]; 18.2 µM in test [11]; 8.55 µM in test [16]. Further, the “fold change (FC)” value in the test on Pseudomonas aeruginosa [5] was determined as 4; in the test with Escherichia coli [6] it was 2; with Escherichia coli [7], 1; with Escherichia coli [13] it was 1; in the test on Pseudomonas aeruginosa [14] it was 2; in the test with Escherichia coli [17], 2.

Turning to `C=CCCn1c(C)cnc1C(=O)O`, the minimal inhibitory concentration (MIC) in the test with Escherichia coli [2] amounted to 8 µg/mL; with Escherichia coli [8], 32 µg/mL; with Escherichia coli [12], 2 µg/mL; in the test on Escherichia coli [15] it was 1 µg/mL. In addition, the IC50 in test [3] is 48.6 µM; in test [9], 0.8 µM; in [10], 144 µM; in test [11], 3.77 µM; in test [16], 37.3 µM. Besides, the “fold change (FC)” value was 4 in the test on Escherichia coli [6], 8 in the test with Escherichia coli [7], 1 in the test on Escherichia coli [13] and 16 in the test on Escherichia coli [17].

Turning to `COc1ccc(Cn2ccnc2C(=O)O)cc1`, the MIC in the test on Pseudomonas aeruginosa [1] was 16 µg/mL; in the test on Escherichia coli [2], 1 µg/mL; in the test on Pseudomonas aeruginosa [4], 64 µg/mL; in the test with Escherichia coli [8], 32 µg/mL; in the test with Escherichia coli [12] it was under 0.25 µg/mL; with Escherichia coli [15] it was 0.5 µg/mL. In addition, the IC50 is 10.9 µM in test [3]; 0.38 µM in [9]; 157 µM in test [10]; 0.84 µM in [11]; 13 µM in test [16]. The “fold change (FC)” value in the test on Pseudomonas aeruginosa [5] is given as 4; with Escherichia coli [6], 32; in the test with Escherichia coli [7], over 64; in the test on Escherichia coli [13], 1; in the test on Pseudomonas aeruginosa [14], 1; in the test on Escherichia coli [17], 32.

As for `O=C(O)c1nccn1Cc1cc(Br)cs1`, the MIC stood at 32 µg/mL with Pseudomonas aeruginosa [1]; 4 µg/mL in the test with Escherichia coli [2]; 64 µg/mL in the test on Pseudomonas aeruginosa [4]; 32 µg/mL in the test with Escherichia coli [8]; 4 µg/mL in the test with Escherichia coli [12]; 2 µg/mL with Escherichia coli [15]. Also, the IC50 in test [3] was determined as 20.3 µM; in [9], 0.43 µM; in [10], 111 µM; in [11], 2.47 µM; in test [16] it was 24.9 µM. For the same molecule, the “fold change (FC)” value in the test on Pseudomonas aeruginosa [5] was determined as 2; in the test with Escherichia coli [6], 8; in the test on Escherichia coli [7], 4; with Escherichia coli [13], 1; with Pseudomonas aeruginosa [14], 1; in the test on Escherichia coli [17], 8.

Turning to `O=C(O)c1nccn1Cc1ccc(O)cc1`, the MIC with Pseudomonas aeruginosa [1] is 16 µg/mL; in the test with Escherichia coli [2], 4 µg/mL; in the test with Pseudomonas aeruginosa [4], 64 µg/mL; in the test with Escherichia coli [8], 32 µg/mL; in the test on Escherichia coli [12], under 0.25 µg/mL; in the test with Escherichia coli [15], 1 µg/mL. The IC50 in [3] was found to be 9.55 µM; in test [9], 0.17 µM; in [10], 118 µM; in test [11], 1.12 µM; in [16], 5.04 µM. Further, the “fold change (FC)” value with Pseudomonas aeruginosa [5] is 4; in the test with Escherichia coli [6], 8; with Escherichia coli [7], over 64; with Escherichia coli [13], 1; with Pseudomonas aeruginosa [14], 1; in the test on Escherichia coli [17], 16.

For the molecule `Nc1nc2c(Cn3ccnc3C(=O)O)cccc2s1`, the MIC with Pseudomonas aeruginosa [1] was 64 µg/mL; in the test on Escherichia coli [2] it was 1 µg/mL; in the test on Pseudomonas aeruginosa [4], 64 µg/mL; in the test with Escherichia coli [8], 32 µg/mL; in the test with Escherichia coli [12], under 0.25 µg/mL; in the test on Escherichia coli [15] it was 0.5 µg/mL. In addition, the IC50 in [3] came out at 217 µM; in test [9], 0.16 µM; in test [10], 131 µM; in test [11], 1.04 µM; in test [16], 1.89 µM. Moreover, the “fold change (FC)” value is 1 in the test with Pseudomonas aeruginosa [5]; 32 with Escherichia coli [6]; over 64 in the test on Escherichia coli [7]; 1 in the test on Escherichia coli [13]; 1 in the test with Pseudomonas aeruginosa [14]; 32 in the test on Escherichia coli [17].

For the molecule `C=CCCn1ccnc1C(=O)O`, the MIC was 32 µg/mL in the test with Escherichia coli [2], 32 µg/mL with Escherichia coli [8], 8 µg/mL with Escherichia coli [12] and 16 µg/mL in the test on Escherichia coli [15]. Besides, the IC50 was over 300 µM in test [3]; 1.05 µM in test [9]; over 300 µM in test [10]; 4.72 µM in [11]; 14.8 µM in test [16]. Moreover, the “fold change (FC)” value turned out to be 1 with Escherichia coli [6], 2 with Escherichia coli [7], 1 in the test on Escherichia coli [13] and 1 in the test with Escherichia coli [17].

With `Cc1cnc(C(=O)O)n1Cc1ccccc1`, the MIC is 16 µg/mL in the test on Pseudomonas aeruginosa [1]; 1 µg/mL in the test with Escherichia coli [2]; 32 µg/mL in the test with Pseudomonas aeruginosa [4]; 32 µg/mL in the test on Escherichia coli [8]; 0.5 µg/mL in the test with Escherichia coli [12]; under 0.25 µg/mL in the test on Escherichia coli [15]. The IC50 turned out to be 86.5 µM in [3]; 0.48 µM in test [9]; 29.7 µM in test [10]; 2.2 µM in test [11]; 3.18 µM in test [16]. In addition, the “fold change (FC)” value in the test on Pseudomonas aeruginosa [5] was 4; in the test on Escherichia coli [6] it was 32; in the test with Escherichia coli [7] it was 32; with Escherichia coli [13] it was 1; in the test with Pseudomonas aeruginosa [14] it was 2; in the test on Escherichia coli [17] it was over 64.

`O=C(O)c1nccn1Cc1ccccc1`: the MIC was 32 µg/mL in the test on Pseudomonas aeruginosa [1]; 16 µg/mL in the test on Escherichia coli [2]; 64 µg/mL in the test with Pseudomonas aeruginosa [4]; 32 µg/mL in the test with Escherichia coli [8]; 16 µg/mL with Escherichia coli [12]; 16 µg/mL with Escherichia coli [15]. The IC50 in test [3] amounted to 32.1 µM; in test [9] it was 0.48 µM; in [10], 63.5 µM; in test [11], 1.55 µM; in test [16] it was 4.14 µM. Moreover, the “fold change (FC)” value in the test on Pseudomonas aeruginosa [5] is 2; in the test with Escherichia coli [6] it was 2; with Escherichia coli [7], 1; in the test with Escherichia coli [13] it was 1; with Pseudomonas aeruginosa [14], 1; in the test with Escherichia coli [17], 1.

For the molecule `N#Cc1ccc(Cn2ccnc2C(=O)O)cc1`, the MIC with Pseudomonas aeruginosa [1] was 32 µg/mL; in the test with Escherichia coli [2], 1 µg/mL; in the test on Pseudomonas aeruginosa [4] it was 64 µg/mL; in the test with Escherichia coli [8] it was 32 µg/mL; in the test with Escherichia coli [12] it was under 0.25 µg/mL; in the test on Escherichia coli [15], under 0.25 µg/mL. Also, the IC50 in [3] was 30.1 µM; in test [9], 0.29 µM; in test [10] it was 227 µM; in test [11] it was 0.12 µM; in test [16], 8.69 µM. The “fold change (FC)” value is 2 in the test on Pseudomonas aeruginosa [5]; 32 in the test with Escherichia coli [6]; over 64 in the test with Escherichia coli [7]; 1 with Escherichia coli [13]; 1 in the test on Pseudomonas aeruginosa [14]; over 64 with Escherichia coli [17].
